Consider two molecules from patent US12727600B2, “Staurosporine⋅emamectin benzoate suspending agent and preparation method and application thereof” (PLANT PROTECTION RESEARCH INSTITUTE OF GUANGDONG ACADEMY OF …, priority 2020, dated 2026).

Usually LC50 stands for the concentration lethal to half of the exposed cells or organisms.

This series concerns second instar larvae of Spodoptera exigua. The series can be described thus: Indoor toxicity by Potter spray method; co-toxicity coefficient method of Sun Y. P. Type of series: in vivo. The following applies: median lethal concentration. The method, then: The method for determining the indoor toxicity of the pesticides involved in the present invention to the second instar larvae of Spodoptera exigua is as follows:
The test method is the Potter spray method: a Potter spray tower is used to spray the vegetable leaves on both sides with 1 mL of the amount of the pesticides treating the leaf on each side, and the sedimentation is performed for 30 seconds. There are 3 replicates for each treatment for 30 larvae (2nd instar larvae of Spodoptera exigua), and a treatment with the clean water is used as the control. The petri dish after sprayed is placed in a constant-temperature incubator (temperature being 25° C., relative humidity being 85%). The death of the testing pests is investigated and recorded after treatment for 24, 48, and 72 hours. During the treatment, the petri dish is kept moist, and fresh Cantonese cabbage leaves are added timely as pest's food.
The formula (1) is used to calculate the mortality of pests, the Abbott formula is used to calculate the corrected mortality, and EXCEL is used to analyze the virulence regression results. Formula (2) is the calculation formula of Abbott. Mortality (%)=Number of dead insects/Number of testing worms before experiment*100 (1) […]

Where two headings read alike, the source gives them in different places.

Emamectin benzoate [0:10]: the LC50 stood at 0.14 µg/mL.
Turning to `CN[C@@H]1C[C@H]2O[C@@](C)([C@@H]1OC)n1c3ccccc3c3c4c(c5c6ccccc6n2c5c31)C(=O)NC4` [10:0, Staurosporine], the LC50 (Spodoptera exigua, mass ratio Staurosporine:Emamectin benzoate, read-out: LC50) worked out at 40.3 µg/mL.
